Data: US20230157952A1, “METHOD FOR IMPROVING THE STABILITY OF A PHARMACEUTICAL COMPOSITION COMPRISING A HIGH PENETRATION DRUG, AND THE PHARMACEUTICAL COMPOSITION OBTAINED THEREFROM” (Techfields Inc., priority 2020, published 2023)
Non-standard residues stand in square brackets, D forms with d. *: point of attachment. Arg(NO2) = N=C(NCCC[C@H](N)C(=O)O)N[N+](=O)[O-]; OiPr = CC(C)O*

How the values were obtained:
Format in all cases: physicochemical
[1] = Effect of pH value on the stability of the solution (purity); conditions: for Purity(%) from day 0-28 / Purity(%) from day 0-14: 25° C.
[2] = Stability of the pure HPDs (dry solid) at 25° C./RH 60%; conditions: for Purity: pure HPD, 25° C./RH 60%; for Stability of the pure powder: room temperature (25° C./RH 60%)
[3] = Effect of temperature (and pH) on the stability of the solution (purity)
[4] = 5% solution with 1 equivalent sodium acetate in 25% ethanol, pH 4.49-4.51
[5] = pure HPD at 25° C./RH 60%, in % (unit assumed)

## Br.CCN(CC)CCOC(=O)C(C)c1ccc2cc(OC)ccc2c1 (racemic) [C-2, 2-(diethylamino)ethyl (R,S)-2-(6-methoxy-2-naphthyl) propionate•HBr salt]
[1]; day 28, pH 1.0, 7% solution in water
  Purity(%) from day 0-28: 69.7 ± 0.3%
[1]; day 28, pH 2.0, 7% solution in water
  Purity(%) from day 0-28: 80.1 ± 0.3%
[1]; day 28, pH 3.0, 7% solution in water
  Purity(%) from day 0-28: 90.7 ± 0.3%
[1]; day 28, pH 3.7, 7% solution in water
  Purity(%) from day 0-28: 97.1 ± 0.3%
[1]; day 28, pH 5.0, 7% solution in water
  Purity(%) from day 0-28: 96.5 ± 0.3%
[1]; day 28, pH 6.0, 7% solution in water
  Purity(%) from day 0-28: 89.0 ± 0.4%
[1]; day 28, pH 7.0, 7% solution in water
  Purity(%) from day 0-28: 65.5 ± 0.3%
[1]; day 28, pH 8.0, 7% solution in water
  Purity(%) from day 0-28: 45.5 ± 0.5%
[2]; 3 month, listed as A-1-4
  Purity: 98.9 ± 0.1
[2]; 6 month, listed as A-1-4
  Purity: 98.6 ± 0.4
[2]; 9 month
  Purity: 98.1 ± 0.1
[2]; 18 month
  Purity: 97.9 ± 0.3
[2]; 24 month
  Purity: 97.7 ± 0.4
[2]; 24 month, listed as A-1-4
  Purity: 98.0 ± 0.4
[2]; Day 0, listed as A-1-4
  Purity: 98.6 ± 0.3

## H-Ala-Pro-Gly-Pro-Arg(NO2)—OCH(CH3)2•HCl (H-APGP[Arg(NO2)]-OiPr; also: HCl salt) [T-2]
[3]; [4]
  Purity (%) at day 30 (60° C.): 32.8 ± 0.2%
  Purity (%) at day 90 (60° C.): 0%
  Purity (%) at day 180 (60° C.): 0%
  Purity (%) at day 360 (60° C.): 0%
  Purity(%) at day 0: 98.9 ± 0.2%
  Purity(%) at day 30 (5° C.): 98.8 ± 0.2%
  Purity(%) at day 30 (25° C.): 97.8 ± 0.3%
  Purity(%) at day 30 (40° C.): 71.3 ± 0.2%
  Purity(%) at day 90 (5° C.): 98.5 ± 0.3%
  Purity(%) at day 90 (25° C.): 97.0 ± 0.2%
  Purity(%) at day 90 (40° C.): 33.6 ± 0.2%
  Purity(%) at day 180 (5° C.): 97.8 ± 0.2%
  Purity(%) at day 180 (25° C.): 95.2 ± 0.3%
  Purity(%) at day 180 (40° C.): 13.6 ± 0.2%
  Purity(%) at day 360 (5° C.): 97.4 ± 0.3%
  Purity(%) at day 360 (25° C.): 92.3 ± 0.3%
  Purity(%) at day 360 (40° C.): 0%
[2]; [5]
  Purity at 3 month: 98.9 ± 0.3
  Purity at 6 month: 98.6 ± 0.2
  Purity at 9 month: 98.6 ± 0.3
  Purity at 12 month: 98.5 ± 0.2
  Purity at 18 month: 98.5 ± 0.2
  Purity at 24 month: 98.4 ± 0.2
  Purity at Day 0: 98.9 ± 0.1
[2]
  Stability of the pure powder: very stable

## CCN(CC)CCOC(=O)[C@H](C)c1ccc(CC(C)C)cc1.Cl [C-1-3, 2-(diethylamino)ethyl (R)-2-(p-isobutylphenyl)propionate•HCl salt]
[3]; 7% solution in water
  Stability of the solution at a temperature higher than 40° C. and a pH lower than 3 or greater than 6: not stable
[2]; 6 month
  Purity: 98.1 ± 0.3
[2]; 9 month
  Purity: 98.0 ± 0.1
[2]; 12 month
  Purity: 98.0 ± 0.3
[2]; 18 month
  Purity: 97.9 ± 0.3
[2]; 24 month
  Purity: 97.8 ± 0.2

## CCCCC(=O)O.CCN(CC)CCOC(=O)c1ccccc1OC(C)=O [A-4, 2-(diethylamino)ethyl acetylsalicylate•valeric acid]
[1]; day 14, pH 1.0, 7% in water
  Purity(%) from day 0-14: 58.1 ± 0.3%
[1]; day 14, pH 2.0, 7% in water
  Purity(%) from day 0-14: 77.3 ± 0.2%
[1]; day 14, pH 3.0, 7% in water
  Purity(%) from day 0-14: 87.5 ± 0.3%
[1]; day 14, pH 3.7, 7% in water
  Purity(%) from day 0-14: 93.2 ± 0.3%
[1]; day 14, pH 4.0, 7% in water
  Purity(%) from day 0-14: 94.2 ± 0.4%
[1]; day 14, pH 4.3, 7% in water
  Purity(%) from day 0-14: 94.7 ± 0.2%
[1]; day 14, pH 4.6, 7% in water
  Purity(%) from day 0-14: 94.0 ± 0.2%
[1]; day 14, pH 5.0, 7% in water
  Purity(%) from day 0-14: 85.5 ± 0.4%
[1]; day 14, pH 6.0, 7% in water
  Purity(%) from day 0-14: 77.3 ± 0.3%
[1]; day 14, pH 7.0, 7% in water
  Purity(%) from day 0-14: 52.5 ± 0.4%
[1]; day 14, pH 8.0, 7% in water
  Purity(%) from day 0-14: 15.2 ± 0.4%
[2]; 6 month
  Purity: 98.6 ± 0.1
[2]; 12 month
  Purity: 98.0 ± 0.2
[2]; 18 month
  Purity: 97.9 ± 0.2
[2]; 24 month
  Purity: 97.2 ± 0.1
[2]; Day 0
  Purity: 98.6 ± 0.2

## H-Tyr-Gly-Gly-Phe-Met-OCH(CH3)2.HCl [U-2]
[1]; 5% solution in 25% ethanol at 25° C.
  pH at which the solution is stable: 3-6
[1]; 5% solution in 25% ethanol, pH 3-6
  Time the solution can be stored at room temperature: about 1 year
[2]; 3 month
  Purity: 98.9 ± 0.3
[2]; 6 month
  Purity: 98.6 ± 0.2
[2]; 9 month
  Purity: 98.6 ± 0.3
[2]; 12 month
  Purity: 98.5 ± 0.2
[2]; 18 month
  Purity: 98.5 ± 0.2
[2]; 24 month
  Purity: 98.4 ± 0.2
[2]; Day 0
  Purity: 98.9 ± 0.1
[2]
  Stability of the pure powder: very stable
